{
  "source": "ChEMBL document CHEMBL1201862",
  "about": "“PubChem BioAssay data set” (2004)",
  "key": {"[1]": {"test": "A549 cell cytotoxicity, dose response, cytotoxicity control, plate reader, cherry-pick, antagonist series (AID 743412)", "type": "functional, cell-based"}, "[2]": {"test": "blockers of bursicon-stimulated LGR2 cAMP reporter – cell-based, HEK293, CRE-luciferase reporter, cherry pick, set 2, dose response (AID 743343);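 also: transfected cells were stimulated with diluted bursicon conditioned medium after compound addition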", "type": "functional"}, "[3]": {"test": "blockade of melanocortin 4 receptor signaling – cell-based, plate reader, cherry pick, counter-screen for LGR2 antagonist project, dose response (AID 743444);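 also: transfected HEK 293 cells stimulated with alpha-MSH peptide; potency of inhibitors of the alpha-MSH evoked signal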", "type": "functional"}, "[4]": {"test": "viability loss in HEK293 cells – cell-based, plate reader, cherry-picked samples, cytotoxicity control, dose response (AID 743446)", "type": "functional"}, "[5]": {"test": "Luminescence-based cell-based high throughput dose response assay to identify activators of the DAF-12 from the parasite S. stercoralis (ssDAF-12).", "type": "functional"}, "[6]": {"biological_target": "T1, Oxysterols receptor LXR-beta (Homo sapiens, UniProt P55055)", "T1 sequence (P55055 whole entry)": "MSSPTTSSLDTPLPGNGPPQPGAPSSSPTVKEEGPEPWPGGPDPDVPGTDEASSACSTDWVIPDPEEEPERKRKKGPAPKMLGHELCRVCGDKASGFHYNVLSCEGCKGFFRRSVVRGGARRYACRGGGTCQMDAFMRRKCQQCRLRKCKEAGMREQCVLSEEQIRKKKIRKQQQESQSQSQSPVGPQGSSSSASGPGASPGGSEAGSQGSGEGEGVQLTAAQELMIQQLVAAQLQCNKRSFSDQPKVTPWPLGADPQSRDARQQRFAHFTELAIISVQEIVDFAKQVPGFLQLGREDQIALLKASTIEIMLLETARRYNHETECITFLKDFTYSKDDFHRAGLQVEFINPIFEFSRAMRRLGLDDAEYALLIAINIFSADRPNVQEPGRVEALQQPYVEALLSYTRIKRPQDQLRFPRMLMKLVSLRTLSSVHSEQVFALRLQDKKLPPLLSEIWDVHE", "test": "LXR agonists, Gal4 luciferase reporter, dose response, counter-screen for ssDAF-12 agonist project, cell-based, luminescence, HEK293, S. stercoralis campaign (AID 720737)", "type": "functional", "conditions": "read-out: IC50 (the source's name)"}, "[7]": {"test": "viability loss in HeLa cells – cytotoxicity control for MgcRacGAP inhibitor project, dose response (AID 624300)", "type": "functional"}, "[8]": {"biological_target": "T2, Rac GTPase-activating protein 1 (Homo sapiens, UniProt Q9H0H5)", "T2 sequence (Q9H0H5 whole entry)": "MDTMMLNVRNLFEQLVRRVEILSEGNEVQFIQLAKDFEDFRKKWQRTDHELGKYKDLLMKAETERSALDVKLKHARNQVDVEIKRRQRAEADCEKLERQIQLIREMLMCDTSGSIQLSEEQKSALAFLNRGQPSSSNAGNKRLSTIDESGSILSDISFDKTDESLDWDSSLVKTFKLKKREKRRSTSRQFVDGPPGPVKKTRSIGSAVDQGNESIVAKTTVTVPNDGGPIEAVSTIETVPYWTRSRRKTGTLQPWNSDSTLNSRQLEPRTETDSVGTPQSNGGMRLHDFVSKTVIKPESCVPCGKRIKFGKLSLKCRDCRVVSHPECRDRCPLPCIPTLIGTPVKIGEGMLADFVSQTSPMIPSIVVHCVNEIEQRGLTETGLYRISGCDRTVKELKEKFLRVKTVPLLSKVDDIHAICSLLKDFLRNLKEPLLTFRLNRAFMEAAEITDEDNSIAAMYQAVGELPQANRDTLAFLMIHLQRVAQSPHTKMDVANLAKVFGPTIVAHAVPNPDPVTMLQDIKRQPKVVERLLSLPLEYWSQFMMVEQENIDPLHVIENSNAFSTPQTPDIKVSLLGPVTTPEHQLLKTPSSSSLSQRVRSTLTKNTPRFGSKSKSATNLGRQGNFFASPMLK", "test": "blockers of MgcRacGAP-driven Rac1 GTP hydrolysis – biochemical, ADP Hunter fluorescence, primary and confirmatory, confirmation (AID 624330)", "type": "functional"}, "[9]": {"test": "Luminescence Cell-Based Dose Response HTS to Identify Activators of Luciferase Translation or Activity in H4 […] Cells. [Related pubchem assays: 1829 (Project Summary), 1814 (Primary HTS)]", "type": "functional"}, "[10]": {"biological_target": "T1, Oxysterols receptor LXR-beta", "type": "functional, cell-based"}, "[11]": {"test": "viability of PTEN-deleted HCT116 cells – cell-based, HCT116 PTEN knockout, dose response (AID 1047);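 also: cells exposed to compound for 60 hours before readout; potency for loss of cell viability measured by luminescence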", "type": "functional"}, "[12]": {"test": "viability of HCT116 lacking mutant beta-catenin – cell-based, human colon tumor, dose response (AID 1045);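 also: cells exposed to compound for 60 hours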", "type": "functional"}, "[13]": {"test": "toxicity toward HepG2 liver cells – cell-based, plate reader, cherry-pick, antagonist series, cytotoxicity control, dose response (AID 743416)", "type": "functional"}, "Albumin": {"biological_target": "Albumin (Bos taurus, UniProt P02769)", "sequence (P02769 whole entry)": "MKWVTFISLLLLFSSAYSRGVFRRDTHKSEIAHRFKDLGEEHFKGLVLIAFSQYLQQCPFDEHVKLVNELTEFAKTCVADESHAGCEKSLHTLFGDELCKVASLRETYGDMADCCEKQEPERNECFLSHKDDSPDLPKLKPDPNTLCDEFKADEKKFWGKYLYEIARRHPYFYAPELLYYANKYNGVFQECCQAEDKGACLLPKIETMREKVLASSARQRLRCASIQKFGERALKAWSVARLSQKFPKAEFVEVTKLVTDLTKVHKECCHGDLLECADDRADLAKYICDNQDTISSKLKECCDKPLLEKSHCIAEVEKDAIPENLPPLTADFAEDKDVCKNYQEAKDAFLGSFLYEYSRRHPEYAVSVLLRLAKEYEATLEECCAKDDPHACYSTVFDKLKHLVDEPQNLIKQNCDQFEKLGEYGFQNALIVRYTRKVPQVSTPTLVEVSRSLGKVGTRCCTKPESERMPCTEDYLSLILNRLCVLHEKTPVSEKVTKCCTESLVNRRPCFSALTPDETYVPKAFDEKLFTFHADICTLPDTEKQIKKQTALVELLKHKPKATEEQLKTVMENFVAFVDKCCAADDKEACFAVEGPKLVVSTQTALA", "test": "Counterscreen for inhibitors of T-cell receptor (TCR)-CD3 interaction: Fluorescence-based biochemical high throughput dose response assay to identify inhibitors of T-cell receptor (TCR)-CD3 interaction using a TAMRA-labeled BSA probe.", "type": "functional"}, "Paired box protein Pax-8": {"biological_target": "Paired box protein Pax-8 (Homo sapiens, UniProt Q06710)", "sequence (Q06710 whole entry)": "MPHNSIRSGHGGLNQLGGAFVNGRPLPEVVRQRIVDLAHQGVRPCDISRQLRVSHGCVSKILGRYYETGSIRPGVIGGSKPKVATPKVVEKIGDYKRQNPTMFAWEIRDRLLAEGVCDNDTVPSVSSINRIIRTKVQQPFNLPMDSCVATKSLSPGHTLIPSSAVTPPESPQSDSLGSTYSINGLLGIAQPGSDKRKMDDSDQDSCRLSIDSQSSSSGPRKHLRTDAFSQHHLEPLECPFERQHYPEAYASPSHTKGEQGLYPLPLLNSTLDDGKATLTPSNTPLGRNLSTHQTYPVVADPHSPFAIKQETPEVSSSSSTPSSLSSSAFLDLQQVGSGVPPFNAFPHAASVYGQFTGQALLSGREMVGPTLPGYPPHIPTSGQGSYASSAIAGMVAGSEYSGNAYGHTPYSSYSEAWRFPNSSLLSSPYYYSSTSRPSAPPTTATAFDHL", "test": "PAX8 transcriptional activity inhibition in RMG-I – RMG-I cells, luciferase, cherry-pick, dose response (AID 687027);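 also: luciferase reporter driven by Pax8 target thyroperoxidase promoter measured by SteadyGlo luminescence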", "type": "functional, cell-based"}, "[14]": {"test": "OVCAR-3 cell viability loss – plate reader, dry powder samples, PAX8 inhibitor project, dose response (AID 743044)", "type": "functional, cell-based"}},
  "note": "Active and inactive are the calls of the source.",
  "data": [
    {"compound": "Cc1cccc(-c2ccc([C@H]3[C@@H](CO)N4CCCCN(C(=O)c5ccc6c(c5)OCO6)C[C@@H]34)cc2)c1", "values": [
      {"measurement": "AC50", "setting": "[1]", "result": "26.4 µM (active)"},
      {"measurement": "AC50", "setting": "[2]", "result": "14.2 µM (active)"},
      {"measurement": "AC50", "setting": "[3]", "result": "15.4 µM (active)"},
      {"measurement": "AC50", "setting": "[4]", "result": "15.6 µM (active)"}
    ]},
    {"compound": "Cn1cnc(NCc2ccccc2)c1[N+](=O)[O-]", "values": [
      {"measurement": "IC50", "setting": "[5]", "result": "> 67.5 µM (inactive)"},
      {"measurement": "EC50", "setting": "[6]", "result": "> 67.5 µM (inactive)"}
    ]},
    {"compound": "Oc1ccc(/C=N/Nc2nn3cnnc3c3ccccc23)cc1", "values": [
      {"measurement": "CC50", "setting": "[7]", "result": "100 µM (active)"},
      {"measurement": "IC50", "setting": "[8]", "result": "22.2 µM (active)"}
    ]},
    {"compound": "Cn1c(=O)c(/C=C/c2ccccc2)nc2ccccc21", "values": [
      {"measurement": "EC50", "setting": "[9]", "result": "0.174 µM (active)"},
      {"measurement": "EC50", "setting": "[10]", "result": "> 67.6 µM (inactive)"},
      {"measurement": "EC50", "setting": "cells", "result": "> 67.6 µM (inactive)"}
    ]},
    {"compound": "Cc1ccc2nc(-c3ccc(NC(=O)COC(=O)c4ccc(Br)o4)cc3)sc2c1", "values": [
      {"measurement": "EC50", "setting": "[11]", "result": "37.3 µM (active)"},
      {"measurement": "EC50", "setting": "[12]", "result": "79.7 µM (active)"},
      {"measurement": "IC50", "setting": "[5]", "result": "> 67.5 µM (inactive)"},
      {"measurement": "EC50", "setting": "[6]", "result": "> 67.5 µM (inactive)"}
    ]},
    {"compound": "Cc1cccc(-c2noc(-c3ccc4c(c3)OCO4)n2)c1", "values": [
      {"measurement": "AC50", "setting": "[1]", "result": "> 52 µM (inactive)"},
      {"measurement": "AC50", "setting": "[13]", "result": "> 52 µM (inactive)"},
      {"measurement": "AC50", "setting": "[2]", "result": "9.54 µM (active)"},
      {"measurement": "AC50", "setting": "[3]", "result": "12.1 µM (active)"},
      {"measurement": "AC50", "setting": "[4]", "result": "> 52 µM (inactive)"}
    ]},
    {"compound": "Cc1onc(-c2ccccc2)c1C(=O)NN=Cc1cc(Cl)cc(Cl)c1O", "values": [
      {"measurement": "IC50", "setting": "Albumin", "result": "> 94 µM (inactive)"}
    ]},
    {"compound": "C[C@@H]1CCCCO[C@@H](CN(C)Cc2ccc(C(F)(F)F)cc2)[C@H](C)CN([C@@H](C)CO)C(=O)c2cc(NC(=O)Nc3ccc(F)cc3)ccc2O1", "values": [
      {"measurement": "AC50", "setting": "Paired box protein Pax-8", "result": "3.37 µM (active)"},
      {"measurement": "AC50", "setting": "[14]", "result": "45.7 µM (active)"}
    ]}
  ]
}
